Tested on: Mycobacterium tuberculosis
Format: cell-based
Conditions: 5x and 10x MIC90 of T145, 5 weeks of incubation

## CC(=O)NC[C@H]1CN(c2ccc3c(c2)Oc2ccccc2O3)C(=O)O1 [T145, N-(((S)-3-(dibenzo[b,e][1,4]dioxin-7-yl)-2-oxooxazolidin-5-yl)methyl)acetamide]
  frequency of spontaneous mutants that confer resistance: 4.0 × 10^-8
